Laboratory results: US12503461B2, “Pesticidally active heterocyclic derivatives with sulfur and sulfoximine containing substituents” (SYNGENTA CROP PROTECTION AG, priority 2019, dated 2025)

Columns and labels:
Format in all cases: in vivo
[1] = test system: Myzus persicae (Green Peach Aphid); assay: Example B5: Myzus persicae (green peach aphid), feeding/contact activity, sprayed sunflower leaf discs; settings: foliar, 144 h, application rate of 200 ppm, aphid population of mixed ages, 6 days after infestation
Procedure: Example B5: Myzus persicae (Green Peach Aphid). Feeding/Contact Activity
Sunflower leaf discs were placed onto agar in a 24-well microtiter plate and sprayed with aqueous test solutions prepared from 10′000 ppm DMSO stock solutions. After drying, the leaf discs were infested with an aphid population of mixed ages. The samples were assessed for mortality 6 days after infestation.

[2] = test system: Plutella xylostella (Diamond Back Moth); assay: Example B4: Plutella xylostella (diamond back moth), treated artificial diet, eggs; settings: 192 h, application rate of 200 ppm, 8 days after infestation, in comparison to untreated samples, read-out: effect in at least one of the two categories (mortality or growth inhibition)
Procedure: Example B4: Plutella xylostella (Diamond Back Moth
24-well microtiter plates with artificial diet were treated with aqueous test solutions prepared from 10′000 ppm DMSO stock solutions by pipetting. After drying, Plutella eggs were pipetted through a plastic stencil onto a gel blotting paper and the plate was closed with it. The samples were assessed for mortality and growth inhibition in comparison to untreated samples 8 days after infestation.

[3] = test system: Spodoptera littoralis (Egyptian Cotton Leaf Worm); assay: Example B7: Spodoptera littoralis (Egyptian cotton leaf worm), sprayed cotton leaf discs, L1 larvae; settings: foliar, 72 h, application rate of 200 ppm, 3 days after infestation, in comparison to untreated samples
Method in brief: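 Cotton leaf discs on agar were sprayed with aqueous test solutions made from 10′000 ppm DMSO stocks, dried, and infested with five L1 larvae. Mortality, anti-feeding and growth inhibition were scored against untreated samples 3 days after infestation; control means any category exceeds the untreated sample.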

[4] = test system: Bemisia tabaci (Cotton White Fly); assay: Example B6: Bemisia tabaci (cotton white fly), feeding/contact activity, sprayed cotton leaf discs; settings: foliar, 144 h, application rate of 200 ppm, adult white flies, 6 days after incubation
Procedure: Example B6: Bemisia tabaci (Cotton White Fly). Feeding/Contact Activity
Cotton leaf discs were placed on agar in 24-well microtiter plates and sprayed with aqueous test solutions prepared from 10′000 ppm DMSO stock solutions. After drying the leaf discs were infested with adult white flies. The samples were checked for mortality 6 days after incubation.

[5] = test system: Chilo suppressalis (Striped Rice Stemborer); assay: Example B9: Chilo suppressalis (striped rice stemborer), treated artificial diet, L2 larvae; settings: 144 h, application rate of 200 ppm, 6 days after infestation, in comparison to untreated samples, read-out: control (mortality, anti-feeding effect, or growth inhibition)
Procedure: Example B9: Chilo suppressalis (Striped Rice Stemborer
24-well microtiter plates with artificial diet were treated with aqueous test solutions prepared from 10′000 ppm DMSO stock solutions by pipetting. After drying, the plates were infested with L2 larvae (6-8 per well). The samples were assessed for mortality, anti-feeding effect, and growth inhibition in comparison to untreated samples 6 days after infestation. Control of Chilo suppressalis by a test sample is given when at least one of the categories mortality, anti-feedant effect, and growth inhibition is higher than the untreated sample.

[6] = test system: Frankliniella occidentalis (Western Flower Thrips); assay: Example B3: Frankliniella occidentalis (western flower thrips), sprayed sunflower leaf discs; settings: foliar, 168 h, application rate of 200 ppm, population of mixed ages, 7 days after infestation
Procedure: Example B3: Frankliniella occidentalis (Western Flower Thrips
Sunflower leaf discs were placed on agar in 24-well microtiter plates and sprayed with aqueous test solutions prepared from […] stock solutions. After drying the leaf discs were infested with a Frankliniella population of mixed ages. The samples were assessed for mortality 7 days after infestation.

[7] = test system: Diabrotica balteata (Corn Root Worm); assay: Example B1: Diabrotica balteata (corn root worm), sprayed maize sprouts on agar, L2 larvae; settings: 96 h, application rate of 200 ppm, 4 days after infestation, in comparison to untreated samples, read-out: effect in at least one of the two categories (mortality or growth inhibition)
Procedure: Example B1: Diabrotica balteata (Corn Root Worm
Maize sprouts placed onto an agar layer in 24-well microtiter plates were treated with aqueous test solutions prepared from 10′000 ppm DMSO stock solutions by spraying. After drying, the plates were infested with L2 larvae (6 to 10 per well). The samples were assessed for mortality and growth inhibition in comparison to untreated samples 4 days after infestation.

[8] = test system: Euschistus heros (Neotropical Brown Stink Bug); assay: Example B2: Euschistus heros (neotropical brown stink bug), sprayed soybean leaves, N2 nymphs; settings: 120 h, application rate of 200 ppm, 5 days after infestation, in comparison to untreated samples, read-out: effect in at least one of the two categories (mortality or growth inhibition)
Procedure: Example B2: Euschistus heros (Neotropical Brown Stink Bug
Soybean leaves on agar in 24-well microtiter plates were sprayed with aqueous test solutions prepared from 10′000 ppm DMSO stock solutions. After drying the leaves were infested with N2 nymphs. The samples were assessed for mortality and growth inhibition in comparison to untreated samples 5 days after infestation.

CCS(=O)(=O)c1cc(C2(C#N)CC2)cnc1-c1nc2cc(S(=O)(=NCC(F)(F)F)C(F)(F)F)cnc2n1C (stereo not drawn) [P57, 1-[5-ethylsulfonyl-6-[3-methyl-6-[N-(2,2,2-trifluoroethyl)-S-(trifluoromethyl)sulfonimidoyl]imidazo[4,5-b]pyridin-2-yl]-3-pyridyl]cyclopropanecarbonitrile]
≥ 80%: mortality at 200 ppm [1] | percent effect (mortality or growth inhibition) at 200 ppm [2] | percent control (mortality, anti-feeding effect or growth inhibition) at 200 ppm [3] | mortality at 200 ppm [4] | percent control (mortality, anti-feedant effect or growth inhibition) at 200 ppm [5] | mortality at 200 ppm [6] | percent effect (mortality or growth inhibition) at 200 ppm [7]

CCS(=O)(=O)c1cc(C2(C#N)CC2)cnc1-c1nc2cc(S(=O)(=NC3CC3)C(F)(F)F)cnc2n1C (stereo not drawn) [P58, 1-[6-[6-[N-cyclopropyl-S-(trifluoromethyl)sulfonimidoyl]-3-methyl-imidazo[4,5-b]pyridin-2-yl]-5-ethylsulfonyl-3-pyridyl]cyclopropanecarbonitrile]
≥ 80%: percent effect (mortality or growth inhibition) at 200 ppm [2] | percent control (mortality, anti-feeding effect or growth inhibition) at 200 ppm [3] | mortality at 200 ppm [4] | percent control (mortality, anti-feedant effect or growth inhibition) at 200 ppm [5] | effect (mortality or growth inhibition) at 200 ppm [8] | percent effect (mortality or growth inhibition) at 200 ppm [7]
